Measurements as given in ChEMBL document CHEMBL4665827, “Discovery of Small-Molecule Inhibitors of Receptor Activator of Nuclear Factor-κB Ligand with a Superior Therapeutic Index” (J Med Chem, 2020).
pKd: −log10 of the molar value. Calls of active or inactive are those of the source. The rule behind the calls is not given here.

Columns and labels:
[1] = target: T1, Tumor necrosis factor ligand superfamily member 11 (Homo sapiens) (UniProt O14788); experiment: Inhibition of human RANKL-induced osteoclastogenesis in RANKL cultured mouse bone marrow cells assessed as reduction in RANKL/M-CSF-induced TRAP activity at 5 uM preincubated with RANKL for 1 hr followed by cell addition and subsequent media replenishment every 48 hrs for 4 days; assay type: cell-based; settings: time 4.0 day
T1 sequence (whole entry): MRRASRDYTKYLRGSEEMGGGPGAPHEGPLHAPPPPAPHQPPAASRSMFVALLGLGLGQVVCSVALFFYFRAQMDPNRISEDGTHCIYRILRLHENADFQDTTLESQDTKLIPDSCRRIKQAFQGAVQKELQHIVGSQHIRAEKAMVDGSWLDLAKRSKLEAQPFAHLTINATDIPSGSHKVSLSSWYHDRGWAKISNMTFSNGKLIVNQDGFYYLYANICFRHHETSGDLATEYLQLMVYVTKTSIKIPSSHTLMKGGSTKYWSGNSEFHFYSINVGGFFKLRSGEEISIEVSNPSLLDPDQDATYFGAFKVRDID

[2] = Cytotoxicity against mouse BMMC assessed as reduction in cell viability measured after 48 hrs by MTT assay; assay type: cell-based; settings: mouse BMMC (bone marrow cells), read-out: LC50
[3] = target: T2, Tumor necrosis factor ligand superfamily member 11 (Homo sapiens, UniProt O14788); experiment: Binding affinity to GST-fused human RANKL extracellular domain (Lys159 to Asp317 residues) expressed in Escherichia coli BL21(DE3) pLysS by fluorescence spectrophotometric assay; settings: for pKd: read-out: Kd
T2 sequence (O14788 whole entry): T1 sequence (whole entry)

Structure (SMILES) | inhibition [1] | CC50 at 48 h [2] | pKd [3] | Kd [3]
O=C(c1coc2ccccc2c1=O)N1CCN(C(=O)c2cn(S(=O)(=O)c3ccccc3)c3ccccc23)CC1 | Active | > 20 µM | 4.96 | –
Cc1cc2occ(C(=O)N3CCN(C(=O)c4cn(-c5cccc(C(F)(F)F)c5)c5ccccc45)CC3)c(=O)c2cc1C | 100% | < 20 µM | 5.34 | –
O=C(c1ccccc1F)N1CCN(C(=O)c2c[nH]c3ccc([N+](=O)[O-])cc23)CC1 | Active | > 20 µM | 4.89 | –
CN(CCN(C)C(=O)c1cn(S(=O)(=O)c2ccccc2)c2ccccc12)C(=O)c1ccccc1 | inactive | – | < 4.82 | –
Nc1cccc(-n2cc(C(=O)N3CCN(C(=O)c4coc5ccccc5c4=O)CC3)c3cc(N)ccc32)c1 | Active | > 20 µM | 5.03 | –
CN(CCN(C)C(=O)c1cn(-c2cccc(C(F)(F)F)c2)c2ccc([N+](=O)[O-])cc12)C(=O)c1coc2ccccc2c1=O | 100% | < 20 µM | 5.55 | –
CN(CCN(C)C(=O)c1cn(-c2cccc(N)c2)c2ccccc12)C(=O)c1coc2ccccc2c1=O | inactive | – | 4.75 | –
O=C(c1cccs1)N1CCN(C(=O)c2c[nH]c3ccc([N+](=O)[O-])cc23)CC1 | inactive | – | 4.80 | –
O=C(c1coc2ccccc2c1=O)N1CCN(C(=O)c2cn(-c3cccc(C(F)(F)F)c3)c3ccc([N+](=O)[O-])cc23)CC1 | inactive | – | – | Not Active
Nc1cccc(-n2cc(C(=O)N3CCN(C(=O)C4COc5ccccc5C4=O)CC3)c3cc(N)ccc32)c1 (stereo not drawn) | inactive | – | – | Not Active
O=C(c1coc2ccccc2c1=O)N1CCN(C(=O)c2cn(-c3cccc([N+](=O)[O-])c3)c3ccccc23)CC1 | inactive | – | < 4.60 | –
O=C(NCCCNC(=O)c1cn(S(=O)(=O)c2ccccc2)c2ccccc12)c1ccccc1 | inactive | – | – | Not Active
CN(CCN(C)C(=O)n1ccnc1)C(=O)c1cn(S(=O)(=O)c2ccccc2)c2ccccc12 | inactive | – | – | Not Active
O=C(c1ccccc1)N1CCN(C(=O)c2cn(-c3cccc(C(F)(F)F)c3)c3ccccc23)CC1 | inactive | – | – | Not Active
Nc1cccc(-n2cc(C(=O)N3CCN(C(=O)c4coc5ccccc5c4=O)CC3)c3ccccc32)c1 | inactive | – | 4.72 | –
O=C(c1ccc2ccccc2c1)N1CCN(C(=O)c2cn(S(=O)(=O)c3ccccc3)c3ccccc23)CC1 | inactive | – | – | Not Active
O=C(c1ccc2ccccc2c1)N1CCN(Cc2cn(-c3cccc(C(F)(F)F)c3)c3ccccc23)CC1 | inactive | – | – | Not Active
CN(CCN(C)C(=O)c1cn(S(=O)(=O)c2cccc(N)c2)c2ccccc12)C(=O)c1coc2ccccc2c1=O | inactive | – | 4.65 | –
O=C(NCCCCNC(=O)c1cn(S(=O)(=O)c2ccccc2)c2ccccc12)c1ccc2ccccc2c1 | inactive | – | 4.74 | –
Nc1cccc(S(=O)(=O)n2cc(C(=O)N3CCN(C(=O)c4coc5ccccc5c4=O)CC3)c3ccccc32)c1 | inactive | – | – | Not Active
O=C(NCCCNC(=O)c1cn(S(=O)(=O)c2ccccc2)c2ccccc12)c1coc2ccccc2c1=O | inactive | – | – | Not Active
Cc1ccc2occ(CN3CCN(Cc4cn(-c5cccc(C(F)(F)F)c5)c5ccccc45)CC3)c(=O)c2c1 | inactive | – | < 4.96 | –
O=C(c1ccc2ccccc2c1)N1CCN(C(=O)c2cn(-c3cccc(C(F)(F)F)c3)c3ccccc23)CC1 | inactive | – | – | Not Active
O=C(NCCNC(=O)c1cn(S(=O)(=O)c2ccccc2)c2ccccc12)c1ccc2ccccc2c1 | inactive | – | 5.45 | –
